Data from US20240050491A1 (priority 2021, published 2024).

Experiments:
[1] = system: Salmonella Typhimurium SL1344; experiment: Salmonella survival in alfalfa sprouts with BX-77 and/or Ca-hypochlorite disinfection; assay type: in vivo
Source text: FIG. 19 is a graph illustrating Salmonella Typhimurium SL1344 survival in sprouts in the presence of BX-77 or absence of BX-77 after disinfection by Ca-hypochlorite of Salmonella contaminated seeds. Alfalfa seeds were contaminated by 10^2 or 10^5 CFU of Salmonella, dried, decontaminated by Ca-hypochlorite and seeded in the presence or absence of BX-77. Salmonella infected seeds were used as controls in the absence or the presence of BX-77. The experiment was repeated twice and each set included 5 cups.
(§1) Seed sterilization by Ca-hypochlorite: To assess the ability of Ca-hypochlorite to inactivate the Salmonella enterica serovar Typhimurium (STm) strain SL1344 on the seeds, alfalfa seeds were pre-contaminated with increasing concentrations of STm cells. Breifly, seeds (1 g) 15 were contaminated with the desired number of bacteria by adding 20 μL of STm suspended in SDDW and mixing by a sterile plastic spreader and then the seeds were dried at room-temp for 30 minutes. […] After 4 days the alfalfa sprouts were extracted and the STm concentration in the extract was analyzed. Salmonella Typhimurium SL1344 survival in sprouts in the presence or absence of Bacillus BX-77 was analyzed after disinfection by Ca-hypochlorite of alfalfa seeds contaminated by 10^2 or 10^5 CFU of STm. […]

[2] = system: Salmonella; experiment: Decontamination of Salmonella contaminated alfalfa seeds by Ca-hypochlorite; assay type: in vivo, Salmonella enterica serovar Typhimurium; conditions: 20,000 ppm
Description: FIGS. 18A-B are graphs illustrating the influence of decontamination by Ca-hypochlorite, of Salmonella contaminated alfalfa seeds, on the concentration of Salmonella. The seeds were contaminated with Salmonella by dipping in 10^2-[…] CFU/ml. Decontamination was performed with 20,000 ppm Ca-hypochlorite. The number of Salmonella on the seeds (CFU/g seeds) was detected immediately after the contamination (A), and in the sprouts (B) after 3 days of sprouting (CFU/g sprouts). The results are representing the average and standard error of 3 independent experiments in duplicates. When bacteria were not detected, enrichment of the samples was performed in BPW. (*) Growth after enrichment. (−) No growth.
as §1, with “cells.” for “cells. Breifly, seeds (1 g) 15 were contaminated with the desired number of bacteria by adding 20 μL of STm suspended in SDDW and mixing by a sterile plastic spreader and then the seeds were dried at room-temp for 30 minutes.”

[Ca+2].[O-]Cl.[O-]Cl [Ca-hypochlorite, calcium hypochlorite]
killing of Salmonella cells ([1]; seeds infected by 10^2 CFU of Salmonella): killed all the Salmonella cells
reduction of Salmonella growth ([1]; seeds infected by 10^5 CFU of Salmonella): 2 log CFU/g
efficiency of decontamination ([2]; higher Salmonella concentrations, 3 day sprouts): not efficient
efficiency of decontamination ([2]; low Salmonella concentrations up to 10^3/ml, seeds and 3 day sprouts): Salmonella was not detected even after sprouting
